Measurements as given in patent US8318781B2, “G-protein-conjugated receptor agonist” (Japan Science and Technology Agency, priority 2007, dated 2012).
Where two headings read alike, the source gives them in different places.

Columns and labels:
Format in all cases: cell-based
human GPR40 (hGPR40) [1] = molecular target: T1, human GPR40 (hGPR40) (Homo sapiens, UniProt O14842); assay: Determination of intracellular Ca2+ concentration (FLIPR), cell line TXGPR40; settings: for agonistic activity for GPR40 (in words): cells in which GPR40 has been transgenically expressed; for [Ca^2+]/GPR40 10 μM (ratio vs. LA): relative fluorescence intensity vs LA at 10 μM
T1 construct: expressed in transfected cells; doxycycline-inducible expression vector
Protocol: (§1) (1) In this test, The cell lines TXGPR40, TXGPR120 and GPR120/Flp-in were plated onto a collagen-coated black 96-well plate in 2×10^5 cells/well. The 96-well plates containing the cells were centrifuged and treated with Doxycycline (final concentration 10 μg/mL), incubated in a CO2 incubator for 21 hours, then used for assay.
(§2) (2) The ligand used in this test includes NCP04, NCP14, NCG20, NCG21, NCG22, NCG23, NCP02, NCP03, NCP05, NCP06, NCG14, NCG17, NCG19, NCG28, NCG29, NCG30, NCG31, NCG34, NCG35, NCG37, NCG38, NCG44, NCG45, NCG46, and NCG54. Each ligand was dissolved in DMSO and adjusted to the concentration of 10 mM, then diluted with Hanks' Balanced Salt Solution (pH 7.4) containing 20 mM HEPES (referred to as FLIPR buffer hereinafter) to the final concentration of 1 to 100 μM. 1% DMSO was used as the negative control, and LA was used as the positive control.
(§3) The ligands and controls were placed in different 96-well plates from the plates for the cells.
(§4) (3) The 96-well plate containing the cells was removed from the CO2 incubator. A fluorescent dye prepared in a twofold higher concentration (Ca Assay Kit Component A diluted with FLIPR Buffer) was added in 50 μL/well, then allowed to stand in the dark at room temperature for one hour.
(§5) (4) After one hour, the 96-well plate containing the cells and the 96-well plate in which ligands and controls were prepared were set on FLIPR (Fluorometric Imaging Plate Reader) for determination.
(§6) (5) Fluorometry using FLIPR was carried out at a laser output of 1.0 W for five minutes. […] after the start of the determination, the ligand (25 μL) was added dropwise to the cell plate at a rate of 50 μL/sec. The intensity of fluorescence was automatically digitized by the application program installed in the FLIPR from the image taken by the CCD camera (with exposure time of 0.40 sec). The interval of data sampling was one second for the initial one minute after the start of operation, and six seconds for the subsequent four minutes.
(§7) (6) The maximum fluorescence intensity was obtained from the data showing the change in the fluorescence intensity over time observed in each well. The maximum fluorescence intensity was plotted against ligand concentration, and pEC50 was calculated. The ratio of the fluorescence intensity for each ligand to LA at 10 μM was calculated as the relative intensity of each ligand.

human GPR120 (hGPR120) [2] = molecular target: T2, human GPR120 (hGPR120) (Homo sapiens, UniProt Q5NUL3); assay: Determination of intracellular Ca2+ concentration (FLIPR), cell line TXGPR120; settings: for agonistic activity for hGPR120 (in words): cells in which GPR120 has been transgenically expressed; for [Ca^2+]/GPR120 10 μM (ratio vs. LA): relative fluorescence intensity vs LA at 10 μM, TXGPR120 cells; for selectivity between GPR40 and GPR120 (in words), from Tables 3 and 4: GPR40 versus GPR120, Ca2+ and ERK results
T2 construct: expressed in transfected cells; doxycycline-inducible expression vector
T2 sequence (Q5NUL3 1-361): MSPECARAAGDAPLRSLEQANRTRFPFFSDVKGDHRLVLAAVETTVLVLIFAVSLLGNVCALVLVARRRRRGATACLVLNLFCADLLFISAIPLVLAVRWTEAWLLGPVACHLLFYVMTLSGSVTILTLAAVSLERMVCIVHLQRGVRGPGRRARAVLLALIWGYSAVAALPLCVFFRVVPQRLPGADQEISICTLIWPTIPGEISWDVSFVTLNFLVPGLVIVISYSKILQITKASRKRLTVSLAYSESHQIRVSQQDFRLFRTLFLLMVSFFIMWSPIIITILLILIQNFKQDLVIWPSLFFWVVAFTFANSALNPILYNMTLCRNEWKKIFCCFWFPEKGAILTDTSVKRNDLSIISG
Protocol: as §1, §2, §3, §4, §5, §6, §7

human GPR120 (hGPR120) [3] = molecular target: T2, human GPR120 (hGPR120); assay: Determination of intracellular Ca2+ concentration (FLIPR), cell line GPR120/Flp-in; settings: for [Ca^2+]/GPR120/Flp-In 10 μM (ratio vs. LA): relative fluorescence intensity vs LA at 10 μM
Protocol: as §1, §2, §3, §4, §5, §6, §7

human GPR40 (hGPR40) [4] = molecular target: T1, human GPR40 (hGPR40); assay: ERK assay, screening for GPR40 ligands in cell line TXGPR40; settings: TXGPR40 cells; for ERK/GPR40 10 μM: ligand 10 μM
Protocol: (§8) This Test 1 was carried out by using the following materials and methods.
(§9) (1) In this test, the cell lines TXGPR40 and TXGPR120 were plated in 35-mm dishes in 5×10^5 cells/per dish.
(§10) Each ligand was dissolved in DMSO, diluted tenfold with the medium to make the total amount of 100 μl. DMSO was used as the negative control, and PMA (phorbol-12-myristate-13-acetate) was used as the positive control.
(§11) (3) The medium was removed from the dish of the cell to reduce the total amount of liquid to 0.9 ml.
(§12) (4) The ligand solution was added dropwise to the cell solution, and dispersed by gently shaking the dish, and allowed to react at room temperature.
(§13) (5) After 5 minutes of reaction, the medium was discarded, and the remaining medium on the dish was removed on ice using an aspirator.
(§14) (6) 150 μl of Lysis buffer (50 mM HEPES (pH 7.0), 150 mM NaCl, 10% glycerol, 1% NonidetP-40, 2 mM MgCl2, 1 mM EDTA, 100 mM NaF, 10 mM sodium phosphate, 1 mM Na3VO4, 20 mM β-glycerophosphate, and Proteinase inhibitor) were added, then the cells were collected using a cell scraper.
(§15) (1) The crude enzyme solution mixed with SDS Sample Buffer was subjected to ultrasonication with a sonifier, then incubated at 90° C. for five minutes.
(§16) (2) The mixture was vortexed and centrifuged at 15,000 rpm for five minutes at 4° C.
(§17) (3) The supernatant of the centrifuged sample was applied to two 7.5% acrylamide gel slabs placed in an electrophoresis tank filled with 1×SDS-PAGE Running Buffer (25 mM Tris, 0.2 M Glycin, and 1% SDS). Electrophoresis was carried out under a constant current of 40 mA for about 80 to 90 minutes.
(§18) (1) A PVDF membrane cut in the same size as the gel slab was immersed in methanol for about 15 seconds and then shaken in Transfer Buffer C solution (25 mM Tris, 0.02% SDS, 2% methanol and 40 mM 6-aminohexanoic acid) at room temperature to swell for 15 minutes. Filter paper for blotting was cut into a 10-cm square.
(§19) (2) On the blotting apparatus were placed sequentially two pieces of filter paper immersed in A solution (0.3 M Tris, 0.02% SDS and 2% methanol), two pieces of filter paper immersed in B solution (25 mM Tris, 0.02% SDS and 2% methanol), and the membrane thereon. The gel slab after electrophoresis, and finally two pieces of filter paper immersed in C solution was placed thereon, and the apparatus was closed.
(§20) (3) The protein was transferred to the membrane at 15 V for 30 minutes.
(§21) (1) The following procedure was all carried out at room temperature. After the protein transfer, the membrane was placed into a vial containing 1×TTBS (0.2 M Tris, 1.5 M NaCl, 0.2% Tween 20) and washed for 15 minutes.
(§22) (2) TTBS was discarded, and about 10 ml of Block Ace was added and blocked on a shaker for one hour.
(§23) (1) The primary antibodies (p44/42 MAP Kinase Antibody and Phospho-p44/42 MAP Kinase Antibody) were each diluted 1000-fold with TTBS.
(§24) (2) After blocking, the Block Ace solution was removed, the solution of the primary antibody was added and allowed to react on the shaker for two hours.
(§25) (1) The secondary antibody (Anti-rabbit Ig, Horseradish Peroxidase linked F(ab′)2 fragments) was diluted 5000-fold with TTBS.
(§26) (2) The primary antibody solution was removed and the membrane was washed three times on the shaker in TTBS for five to ten minutes each.
(§27) (3) TTBS was removed and the solution of secondary antibody was added and left for 1 hour on the shaker.
(§28) (1) 2 ml each of Detection Reagent 1 and Detection Reagent 2 from ECL kit were mixed together on ice.
(§29) (2) The solution of secondary antibody was removed from the membrane reacted with the secondary antibody and then washed three times on the shaker in TTBS for five minutes each.
(§30) (3) The liquid was thoroughly removed from the membrane, which was then placed in a plastic bag, and 2 ml of the Detection Reagent mixture was added per each membrane.
(§31) (4) The membrane was kept in contact with a film in the cassette for one to five minutes, and the film was developed using an automatic developing machine.

human GPR120 (hGPR120) [5] = molecular target: T2, human GPR120 (hGPR120); assay: ERK assay, screening for GPR120 ligands in cell line TXGPR120; settings: TXGPR120 cells; for ERK/GPR120 10 μM: ligand 10 μM; for ERK/GPR120 10 μM / ERK/GPR120 100 μM: class relative to LA; for ERK/GPR120 100 μM: ligand 100 μM;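 on ERK/GPR120 10 μM: signals normalized between DMSO and PMA controls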
Protocol: as §8, §9, §10, §11, §12, §13, §14, §15, §16, §17, §18, §19, §20, §21, §22, §23, §24, §25, §26, §27, §28, §29, §30, §31

[6] = TXGPR40 cells, maximum fluorescence intensity vs ligand concentration, read-out: [Ca^2+]/GPR40 pEC50 (converted)
[7] = GPR120/Flp-in cells, maximum fluorescence intensity vs ligand concentration, read-out: [Ca^2+]/GPR120/Flp-In pEC50 (converted)

T1 sequence (O14842 whole entry): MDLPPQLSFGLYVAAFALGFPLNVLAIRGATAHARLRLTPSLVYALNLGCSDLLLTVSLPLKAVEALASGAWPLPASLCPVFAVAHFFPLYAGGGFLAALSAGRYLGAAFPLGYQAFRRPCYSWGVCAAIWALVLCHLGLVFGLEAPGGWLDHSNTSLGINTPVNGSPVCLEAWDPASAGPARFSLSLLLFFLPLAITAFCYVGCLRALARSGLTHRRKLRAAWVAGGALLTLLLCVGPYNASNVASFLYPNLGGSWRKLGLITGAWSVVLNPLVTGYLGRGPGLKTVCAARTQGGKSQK

EC50 (human GPR40 (hGPR40) [1]) [µM] | agonistic activity for GPR40 (in words) (human GPR40 (hGPR40) [1]) | [Ca^2+]/GPR40 10 μM (ratio vs. LA) (human GPR40 (hGPR40) [1]; TXGPR40 cells) | EC50 (human GPR120 (hGPR120) [2]) [µM] | agonistic activity for hGPR120 (in words) (human GPR120 (hGPR120) [2]) | [Ca^2+]/GPR120 10 μM (ratio vs. LA) (human GPR120 (hGPR120) [2]) | EC50 (human GPR120 (hGPR120) [3]) [µM] | [Ca^2+]/GPR120/Flp-In 10 μM (ratio vs. LA) (human GPR120 (hGPR120) [3]; GPR120/Flp-in cells) | ERK activation for GPR40 (in words) (human GPR40 (hGPR40) [4]; FIGS. 1-4) | ERK/GPR40 10 μM (human GPR40 (hGPR40) [4]; class relative to LA) | ERK/GPR40 100 μM (human GPR40 (hGPR40) [4]; ligand 100 μM, class relative to LA) | ERK activation for GPR120 (in words) (human GPR120 (hGPR120) [5]; FIGS. 5-8) | ERK/GPR120 10 μM (human GPR120 (hGPR120) [5]) | ERK/GPR120 100 μM (human GPR120 (hGPR120) [5]) | EC50 (human GPR40 (hGPR40) [1]; [6]) [µM] | selectivity between GPR40 and GPR120 (in words), from Tables 3 and 4 (human GPR120 (hGPR120) [2]) | EC50 (human GPR120 (hGPR120) [3]; [7]) [µM] | SMILES
19.1 | showed a specific reactivity | 0.32 | 17 | exhibit a similar effect | 0.61 | 6.92 | 0.73 | strongly activated ERK | +++ (+++ denotes a higher value than LA) | +++ (+++ denotes a higher value than LA) | strongly activate ERK | +++ (+++ denotes a higher value than LA) | +++ (+++ denotes a higher value than LA) |  |  |  | O=C(O)CCCc1ccc(OCCN(c2ccccc2)c2nc3ccccc3s2)cc1 [NCG31]
 | showed a specific reactivity | 1.29 |  | exhibit a similar effect | 0.04 |  | 0.33 |  | ++ (++ denotes 50 to 100% of LA) |  |  |  |  | 2.88 | selective agonists for GPR40 | 17 | CS(=O)(=O)NC(=O)CCc1ccc(NCc2cccc(Oc3ccccc3)c2)cc1 [NCG19]
 |  |  |  |  |  |  |  |  |  |  |  |  |  | 20.4 |  | 19.1 | CCCCN(CCOc1ccc(CCCCC(=O)O)cc1)c1ccccn1 [NCG22, 5-{4-[2-(2-butylpyridinylamino)ethoxy]phenyl}pentanoic acid]
 |  | 0.01 |  | exhibit a similar effect | 0.01 |  | 0.65 |  |  |  |  | + (+ denotes 0 to 100% of LA) | ++ (++ denotes 50 to 100% of LA) |  |  | 10 | O=C(O)CCCc1ccc(OCCN(c2cccnc2)c2ccccn2)cc1 [NCG45]
 | showed a specific reactivity | 1.34 |  | exhibit a similar effect | 0.00 |  | 0.59 |  | ++ (++ denotes 50 to 100% of LA) |  |  |  |  | 3.39 | selective agonists for GPR40 | 5.89 | c1ccc(Oc2cccc(CNc3ccc(CCc4nnn[nH]4)cc3)c2)cc1 [NCG17]
27.5 |  |  |  |  |  | 12.6 |  |  |  |  |  |  |  |  |  |  | CCCCN(CCOc1ccc(CCCC(=O)O)cc1)c1ccccn1 [NCG20, 4-{4-[2-(2-butylpyridinylamino)ethoxy]phenyl}butanoic acid]
 |  |  |  | exhibit a similar effect |  |  |  |  |  |  |  |  |  |  |  |  | CCCCCCN(CCOc1ccc(CCC(=O)O)cc1)c1ccccn1 [NCP06]
 | showed a specific reactivity | 1.17 |  | exhibit a similar effect | 0.00 |  | 0.43 |  | ++ (++ denotes 50 to 100% of LA) |  |  |  |  |  | selective agonists for GPR40 | 14.8 | O=C(O)CCc1ccc(NCc2cccc3ncccc23)cc1 [NCG14]
